Source: publication PMC9315260, “Diarylamine-Guided Carboxamide Derivatives: Synthesis, Biological Evaluation, and Potential Mechanism of Action” (Frontiers in Chemistry, 2022)
Entries after “also recorded” stand apart in the source; their conditions may differ.

Key:
[1] = MTT in vitro cytotoxicity assay, MARC145; type: cell-based, African green monkey; conditions: African green monkey, MARC145 cells (kidney cell line, subclone of MA-104), Table 3; MTT; mean ± S.D.
Protocol: (§1) The lead molecules A2 and all newly prepared diarylamine derivatives B1-13 and C1-11 were evaluated for their in vitro cytotoxic effects against SGC-7901, A875, HepG2 and MARC145 cell lines by the classical MTT [3-(4,5-dimethylthiazol-2-yl)-2,5-diphenyl tetrazolium bromide] assay ([Alley et al., 1988]; [Ke et al., 2012]; [Shi et al., 2012]; [Yu et al., 2015]; [Ke et al., 2019]; [Xu et al., 2019]; [Huang et al., 2021]) using 5-FU (5-Fluorouracil) as a control.
(§2) The cytotoxicity of target compounds was determined with MTT assay ([Alley et al., 1988]; [Ke et al., 2012]; [Shi et al., 2012]; [Yu et al., 2015]; [Ke et al., 2019]; [Xu et al., 2019]; [Huang et al., 2021]). SGC-7901, A875, HepG2 and MARC145 cell lines were obtained from Hubei Biopesticide Engineering Research Centre. All data of the experiment were analyzed with SPSS software, and all assay were performed in triplicate on three independent experiments, and measurement data were expressed as the mean ± S.D.
(§3) The in vitro cytotoxicity of the synthesized compounds against different cell lines (SGC-7901, A875, HepG2 and MARC145) was measured with MTT assay. All the data of the experiment were analyzed with SPSS software, and the 50% inhibitory concentrations (IC50) of each compound for the different cell lines were determined. A control was run for each test, and all assays were performed in triplicate on three independent experiments, and measurement data were expressed as the mean ± S.D.

[2] = test system: MARC145 (subclone of African green monkey kidney cell line MA-104); assay: MTT in vitro cytotoxicity assay, MARC145; type: cell-based; conditions: at 100 µM; for inhibition at 100 µM: Chlorocebus sabaeus, MARC145, read-out: Cell growth inhibition (%) MARC145
Protocol: as §1, §2, §3

[3] = test system: A875 cells; assay: LDH release (cellular necrosis); type: cell-based, human; conditions: 24 h after treatment
Protocol: From the preliminary analysis of apoptosis, the results encourage us to further investigate the type of cell death induced by the potential compounds (C6 and C11). As we know, the release of LDH is a typical characteristic feature of necrotic cell death, and so which was detected.
A875 cells grown in 96-well plates were treated with serial dilutions of each tested compound for 24 h. The culture media were collected, and the concentrations of LDH were determined based on our previous research ([Huang et al., 2021]).
A875 cells grown in 96-well plates were treated with serial dilutions of each tested compound for 24 h. The culture media were collected, and the concentrations of LDH were determined with an LDH assay kit according to the manufacturer’s instructions (Abcam).

[4] = biological target: CDK2/A2 (Homo sapiens, UniProt P24941); assay: ADP-GLO kinase inhibitory assay, CDK2/A2; type: biochemical; conditions: for inhibition of CDK2/A2, in words: at 1 μM
Protocol: (§4) Based on the aforementioned results for the potential mechanism of action, the kinase inhibitory profile of compounds C6 and C11 were screened at two dose concentration of 10 and 1 µM over a panel of 15 kinases, and the kinase inhibitory activities are listed in supporting information (Supplementary Table S1).
(§5) The kinase inhibitory profile of compounds C6 and C11 were screened at two dose concentration of 10 and 1 µM over a panel of 15 kinases, and each assay was repeated twice. All the inhibitory assays were carried out through kinase profiling services provided by HY Biotech (Chinese), in which ADP-GLO kinase assays were used.
as §5, with “10 µM” for “10”

[5] = biological target: PIM1 (Homo sapiens, UniProt P11309); assay: ADP-GLO kinase inhibitory assay, PIM1; type: biochemical
Protocol: as §4, §5
as §5, with “10 µM” for “10”

[6] = test system: A875 cells; assay: Annexin V-FITC/PI dual staining flow cytometry; type: cell-based, human; conditions: for apoptotic rate: 24 h, 2×IC50 concentration, FITC(+)PI(−); for apoptosis induction, in words: 24 h treatment
Protocol: Apoptosis induction is one of the important modes of action for antitumor drugs.
Quantitative analysis of apoptotic and necrotic cell death induced by potential molecules was investigated using Annexin V-FITC/PI dual staining assay ([Yu et al., 2015]; [Huang et al., 2021]).
Quantitative analysis of apoptotic and necrotic cell death induced by the test compounds was performed by Annexin V-FITC apoptosis detection kit according to the manufacturer’s instructions (Abcam). Briefly, 2×10^5 A875 cells were seeded in 6-well plates and grown overnight. […] Cells treated with 0.1% DMSO were served as solvent control. Following treatment cells were harvested, washed twice with ice-cold PBS and resuspended in binding buffer. Then the cells were stained by adding 5 µl of Annexin V-FITC and 5 µl of propidium iodide, sit for 5 min at room temperature in the dark and analyzed by flow cytometry (Beckman coulter FC500).

[7] = test system: SGC-7901, A875, HepG2 and MARC145 cell lines; assay: MTT in vitro cytotoxicity assay, statements over the whole cell panel; type: cell-based; conditions: for cytotoxic effect / inhibition activity in words: IC50-based judgement, compared with 5-FU; for inhibition activity in preliminary screening, in words: at 100 µM, inhibition rate higher than control 5-FU
Protocol: as §1, §2, §3

[8] = biological target: RIPK3 (Homo sapiens, UniProt Q9Y572); assay: ADP-GLO kinase inhibitory assay, RIPK3; type: biochemical
Protocol: as §4, §5
as §5, with “10 µM” for “10”

[9] = biological target: ERK1 (Homo sapiens, UniProt P27361); assay: ADP-GLO kinase inhibitory assay, ERK1; type: biochemical
Protocol: as §4, §5
as §5, with “10 µM” for “10”

[10] = biological target: CAMK2 alpha (Homo sapiens, UniProt Q9UQM7); assay: ADP-GLO kinase inhibitory assay, CAMK2 alpha; type: biochemical
Protocol: as §4, §5
as §5, with “10 µM” for “10”

[11] = test system: HepG2 (human hepatocellular liver carcinoma cell line); assay: MTT in vitro cytotoxicity assay, HepG2; type: cell-based; conditions: for IC50: HepG2, Table 3, MTT, mean ± S.D.; for inhibition at 100 µM: HepG2, at 100 µM, read-out: Cell growth inhibition (%) HepG2
Protocol: as §1, §2, §3

Chain of PIM1 (P11309 whole entry, species assumed): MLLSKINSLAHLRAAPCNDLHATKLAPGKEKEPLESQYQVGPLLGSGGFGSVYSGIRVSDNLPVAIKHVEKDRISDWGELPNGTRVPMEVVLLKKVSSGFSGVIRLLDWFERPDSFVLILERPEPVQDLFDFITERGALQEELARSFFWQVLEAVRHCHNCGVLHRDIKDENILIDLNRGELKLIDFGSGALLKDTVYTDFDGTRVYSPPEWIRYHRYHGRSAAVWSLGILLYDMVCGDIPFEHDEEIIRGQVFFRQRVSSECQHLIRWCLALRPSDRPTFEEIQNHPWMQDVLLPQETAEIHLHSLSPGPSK
Chain of ERK1 (P27361 whole entry, species assumed): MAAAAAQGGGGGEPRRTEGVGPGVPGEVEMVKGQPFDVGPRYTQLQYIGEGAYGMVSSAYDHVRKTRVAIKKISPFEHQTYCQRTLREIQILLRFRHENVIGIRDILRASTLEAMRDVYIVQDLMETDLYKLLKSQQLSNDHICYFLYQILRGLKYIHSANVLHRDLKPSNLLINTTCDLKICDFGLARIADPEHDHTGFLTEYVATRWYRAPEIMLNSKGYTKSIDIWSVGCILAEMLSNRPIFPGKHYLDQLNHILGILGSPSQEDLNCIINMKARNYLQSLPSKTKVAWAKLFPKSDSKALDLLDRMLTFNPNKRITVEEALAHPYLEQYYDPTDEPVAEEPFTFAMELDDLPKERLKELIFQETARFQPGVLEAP
Chain of CAMK2 alpha (Q9UQM7 whole entry): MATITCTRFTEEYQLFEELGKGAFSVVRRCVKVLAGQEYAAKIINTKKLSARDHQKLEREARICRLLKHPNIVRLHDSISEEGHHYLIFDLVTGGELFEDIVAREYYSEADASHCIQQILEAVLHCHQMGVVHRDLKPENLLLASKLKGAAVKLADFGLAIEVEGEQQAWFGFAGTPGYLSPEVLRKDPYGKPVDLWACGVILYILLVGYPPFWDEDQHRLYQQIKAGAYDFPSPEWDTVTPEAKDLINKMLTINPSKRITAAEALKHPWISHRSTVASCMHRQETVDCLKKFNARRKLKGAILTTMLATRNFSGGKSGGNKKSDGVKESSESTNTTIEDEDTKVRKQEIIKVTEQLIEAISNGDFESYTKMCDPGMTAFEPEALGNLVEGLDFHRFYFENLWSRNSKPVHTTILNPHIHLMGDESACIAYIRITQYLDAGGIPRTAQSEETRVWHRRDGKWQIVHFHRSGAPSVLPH
Chain of RIPK3 (Q9Y572 whole entry, species assumed): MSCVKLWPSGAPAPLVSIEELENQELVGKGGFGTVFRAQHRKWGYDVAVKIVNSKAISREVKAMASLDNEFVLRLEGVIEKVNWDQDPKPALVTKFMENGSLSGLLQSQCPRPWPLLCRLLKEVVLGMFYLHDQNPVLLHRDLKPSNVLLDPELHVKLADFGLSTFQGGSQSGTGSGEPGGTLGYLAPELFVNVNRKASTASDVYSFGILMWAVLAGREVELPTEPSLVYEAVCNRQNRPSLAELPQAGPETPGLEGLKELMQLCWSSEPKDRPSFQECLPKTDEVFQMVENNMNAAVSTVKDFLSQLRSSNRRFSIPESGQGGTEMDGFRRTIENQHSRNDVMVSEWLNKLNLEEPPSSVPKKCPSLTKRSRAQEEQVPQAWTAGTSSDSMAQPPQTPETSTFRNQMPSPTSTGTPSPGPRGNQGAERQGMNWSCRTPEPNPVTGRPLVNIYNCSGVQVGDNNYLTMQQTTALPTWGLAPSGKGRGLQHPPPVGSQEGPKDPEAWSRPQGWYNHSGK

| inhibition at 1 µM [4] | inhibition at 10 µM [4] | inhibition of CDK2/A2, in words [4] | inhibition at 1 µM [5] | inhibition at 10 µM [5] | inhibition at 1 µM [8] | inhibition at 10 µM [8] | inhibition at 1 µM [9] | inhibition at 10 µM [9] | inhibition at 1 µM [10] | inhibition at 10 µM [10] | SMILES | IC50 [1] | inhibition at 100 µM [2] | release of LDH, in words [3] | apoptotic rate [6] | apoptosis induction, in words [6] | cytotoxic effect / inhibition activity in words [7] | dose-response analysis of cell growth inhibition, in words ([7]; SGC-7901, A875, HepG2, MARC145) | inhibition activity in preliminary screening, in words [7] | IC50 [11] | other results |
| --- | --- | --- | --- | --- | --- | --- | --- | --- | --- | --- | --- | --- | --- | --- | --- | --- | --- | --- | --- | --- | --- |
| 26.8% | 16.7% | some inhibitions | 23.1% | 10.3% | 2.34% | 10.4% | 18.2% | 3.07% | 5.65% | -1.53% | O=C(Nc1ccc(Cl)nc1)c1cccnc1Nc1cccc(C(F)(F)F)c1 [C11, N-(6-Chloropyridin-3-yl)-2-((3-(trifluoromethyl)phenyl)amino)nicotinamide] | > 102 µM | 27.1 ± 3.6% | significantly increased | 27% | induced apoptotic changes | good cytotoxic effect; also recorded: higher inhibition activities compared to the control 5-FU | significant concentration dependence | good inhibition activity | 10.2 ± 2.04 µM | inhibition on normal cell lines (MARC145), in words [2]: low inhibition; inhibition at 100 µM [11]: 85.7 ± 2.4% |
| 23.4% | 15% | certain inhibitions | 12.8% | 15.8% | -1.37% | 16.8% | 6.76% | -6.1% | 5.12% | 37.8% | O=C(Nc1cccc(C(F)(F)F)c1)c1cccnc1Nc1cccc(C(F)(F)F)c1 [C6, N-(3-(Trifluoromethyl)phenyl)-2-((3-(trifluoromethyl)phenyl)amino)nicotinamide] | 9.72 ± 2.75 µM | 89.8 ± 3.4% | significantly increased | 12% | induced apoptotic changes | good cytotoxic effect; also recorded: higher inhibition activities compared to the control 5-FU | significant concentration dependence | good inhibition activity | 9.99 ± 1.58 µM | IC50 ([7]; SGC-7901, A875, HepG2, MARC145, read-out: IC50 values, span over the tested cell lines): 5.53 to 12.8 µM; inhibition at 100 µM [11]: 91.3 ± 3.7% |
